Measurements reported in patent US20210045385A1, “PYRIDAZINONE-SUBSTITUTED KETOXIMES AS HERBICIDES” (FMC Corporation, priority 2018, published 2021).

Columns and labels:
Type in all cases: in vivo
[1] = tested on: foxtail, green (green foxtail, Setaria viridis); test: Test A preemergence, visual plant response rating; details: approx. 10 days
In short: (§1)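 Compared with untreated controls, treated plants received a visual injury score on a 0–100 scale around 10 days after application. The compound, in a non-phytotoxic solvent with surfactant, was given as a preemergence soil spray or postemergence at the one- to two-leaf stage.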

kochia (Kochia scoparia) [2] = test: Test A preemergence, visual plant response rating; details: approx. 10 days
In short: as §1

[3] = tested on: ragweed (common ragweed, Ambrosia elatior); test: Test A preemergence, visual plant response rating; details: approx. 10 days
In short: as §1

[4] = tested on: barnyardgrass (Echinochloa crus-galli); test: Test A preemergence, visual plant response rating; details: approx. 10 days
In short: as §1

[5] = tested on: pigweed (Amaranthus retroflexus); test: Test A preemergence, visual plant response rating; details: approx. 10 days
In short: as §1

[6] = tested on: Italian ryegrass (Lolium multiflorum); test: Test A preemergence, visual plant response rating; details: approx. 10 days
In short: as §1

[7] = tested on: foxtail, green (green foxtail, Setaria viridis); test: Test A postemergence, visual plant response rating; details: for Foxtail, Green plant response rating (0 to 100 scale): 500 g ai/ha, postemergence, 0 is no effect, 100 is complete control; for Foxtail, Green plant response rating: Postemergence, 125 g ai/ha, 0 to 100 scale (0 no effect, 100 complete control)
In short: as §1

kochia (Kochia scoparia) [8] = test: Test A postemergence, visual plant response rating; details: for Kochia plant response rating (0 to 100 scale): 500 g ai/ha, postemergence, 0 is no effect, 100 is complete control; for Kochia plant response rating: Postemergence, 125 g ai/ha, 0 to 100 scale (0 no effect, 100 complete control)
In short: as §1

[9] = tested on: wheat (Triticum aestivum); test: Test A postemergence, visual plant response rating; details: for Wheat plant response rating (0 to 100 scale): 500 g ai/ha, postemergence, 0 is no effect, 100 is complete control; for Wheat plant response rating: Postemergence, 125 g ai/ha, 0 to 100 scale (0 no effect, 100 complete control)
In short: as §1

[10] = tested on: ragweed (common ragweed, Ambrosia elatior); test: Test A postemergence, visual plant response rating; details: for Ragweed plant response rating (0 to 100 scale): 500 g ai/ha, postemergence, 0 is no effect, 100 is complete control; for Ragweed plant response rating: Postemergence, 125 g ai/ha, 0 to 100 scale (0 no effect, 100 complete control)
In short: as §1

[11] = tested on: barnyardgrass (Echinochloa crus-galli); test: Test A postemergence, visual plant response rating; details: for Barnyardgrass plant response rating (0 to 100 scale): 500 g ai/ha, postemergence, 0 is no effect, 100 is complete control; for Barnyardgrass plant response rating: Postemergence, 125 g ai/ha, 0 to 100 scale (0 no effect, 100 complete control)
In short: as §1

[12] = tested on: pigweed (Amaranthus retroflexus); test: Test A postemergence, visual plant response rating; details: for Pigweed plant response rating (0 to 100 scale): 500 g ai/ha, postemergence, 0 is no effect, 100 is complete control; for Pigweed plant response rating: Postemergence, 125 g ai/ha, 0 to 100 scale (0 no effect, 100 complete control)
In short: as §1

[13] = tested on: blackgrass (Alopecurus myosuroides); test: Test A postemergence, visual plant response rating; details: for Blackgrass plant response rating (0 to 100 scale): 500 g ai/ha, postemergence, 0 is no effect, 100 is complete control; for Blackgrass plant response rating: Postemergence, 125 g ai/ha, 0 to 100 scale (0 no effect, 100 complete control)
In short: as §1

[14] = tested on: galium (catchweed bedstraw, Galium aparine); test: Test A postemergence, visual plant response rating; details: for Galium plant response rating (0 to 100 scale): 500 g ai/ha, postemergence, 0 is no effect, 100 is complete control; for Galium plant response rating: Postemergence, 125 g ai/ha, 0 to 100 scale (0 no effect, 100 complete control)
In short: as §1

corn (Zea mays) = test: Test A postemergence, visual plant response rating; details: for Corn plant response rating (0 to 100 scale): 500 g ai/ha, postemergence, 0 is no effect, 100 is complete control; for Corn plant response rating: Postemergence, 125 g ai/ha, 0 to 100 scale (0 no effect, 100 complete control)
In short: as §1

[15] = tested on: Italian ryegrass (Lolium multiflorum); test: Test A postemergence, visual plant response rating; details: for Ryegrass, Italian plant response rating (0 to 100 scale): 500 g ai/ha, postemergence, 0 is no effect, 100 is complete control; for Ryegrass, Italian plant response rating: Postemergence, 125 g ai/ha, 0 to 100 scale (0 no effect, 100 complete control)
In short: as §1

[16] = tested on: ducksalad (Heteranhera limosa); test: Test B flooded paddy test, visual plant response rating; details: 250 g ai/ha, Flood, applied to paddy water, 2-leaf stage, evaluated after 13 to 15 days
In short: (§2)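 Test pots are flooded 3 cm above the soil at treatment, and the test substance is introduced into this standing water. After keeping the flood level and growing plants, treated at the 2-leaf stage, for 13 to 15 days under glass, injury is assessed visually versus controls.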

[17] = tested on: barnyardgrass (Echinochloa crus-galli); test: as above; details: 250 g ai/ha, Flood, applied to paddy water, 2-leaf stage, evaluated after 13 to 15 days
In short: as §2

rice (Oryza sativa) = test: as above; details: 250 g ai/ha, Flood, applied to paddy water, 2-leaf stage, evaluated after 13 to 15 days
In short: as §2

[18] = tested on: sedge, umbrella (small-flower umbrella sedge, Cyperus difformis); test: as above; details: 250 g ai/ha, Flood, applied to paddy water, 2-leaf stage, evaluated after 13 to 15 days
In short: as §2

Cc1ccccc1/C(=N/OC(C)C)c1c(O)c(C)nn(C)c1=O [Compound 19]
Foxtail, Green plant response rating (0 to 100 scale) ([1]; 125 g ai/ha Preemergence): 0
Foxtail, Green plant response rating (0 to 100 scale) ([1]; 500 g ai/ha Preemergence): 40
Kochia plant response rating (0 to 100 scale) (kochia (Kochia scoparia) [2]; 125 g ai/ha Preemergence): 0
Kochia plant response rating (0 to 100 scale) (kochia (Kochia scoparia) [2]; 500 g ai/ha Preemergence): 0
Ragweed plant response rating (0 to 100 scale) ([3]; 125 g ai/ha Preemergence): 50
Ragweed plant response rating (0 to 100 scale) ([3]; 500 g ai/ha Preemergence): 80
Barnyardgrass plant response rating (0 to 100 scale) ([4]; 125 g ai/ha Preemergence): 50
Barnyardgrass plant response rating (0 to 100 scale) ([4]; 500 g ai/ha Preemergence): 60
Pigweed plant response rating (0 to 100 scale) ([5]; 125 g ai/ha Preemergence): 0
Pigweed plant response rating (0 to 100 scale) ([5]; 500 g ai/ha Preemergence): 80
Ryegrass, Italian plant response rating (0 to 100 scale) ([6]; 125 g ai/ha Preemergence): 0
Ryegrass, Italian plant response rating (0 to 100 scale) ([6]; 500 g ai/ha Preemergence): 50
Foxtail, Green plant response rating (0 to 100 scale) [7]: 50
Foxtail, Green plant response rating [7]: 10
Kochia plant response rating (0 to 100 scale) (kochia (Kochia scoparia) [8]): 30
Kochia plant response rating (kochia (Kochia scoparia) [8]): 10
Wheat plant response rating (0 to 100 scale) [9]: 0
Wheat plant response rating [9]: 0
Ragweed plant response rating (0 to 100 scale) [10]: 80
Ragweed plant response rating [10]: 70
Barnyardgrass plant response rating (0 to 100 scale) [11]: 60
Barnyardgrass plant response rating [11]: 20
Pigweed plant response rating (0 to 100 scale) [12]: 80
Pigweed plant response rating [12]: 70
Blackgrass plant response rating (0 to 100 scale) [13]: 50
Blackgrass plant response rating [13]: 10
Galium plant response rating (0 to 100 scale) [14]: 90
Galium plant response rating [14]: 80
Corn plant response rating (0 to 100 scale) (corn (Zea mays)): 0
Corn plant response rating (corn (Zea mays)): 0
Ryegrass, Italian plant response rating (0 to 100 scale) [15]: 30
Ryegrass, Italian plant response rating [15]: 20
Plant response rating, Ducksalad (0 to 100 scale, 0 is no effect, 100 is complete control) [16]: 0
Plant response rating, Barnyardgrass (0 to 100 scale, 0 is no effect, 100 is complete control) [17]: 0
Plant response rating, Rice (0 to 100 scale, 0 is no effect, 100 is complete control) (rice (Oryza sativa)): 0
Plant response rating, Sedge, Umbrella (0 to 100 scale, 0 is no effect, 100 is complete control) [18]: 0

Cc1cccc(/C(=N\O)c2c(O)c(C)nn(C)c2=O)c1 [Compound 21]
Foxtail, Green plant response rating (0 to 100 scale) ([1]; 125 g ai/ha Preemergence): 0
Foxtail, Green plant response rating (0 to 100 scale) ([1]; 500 g ai/ha Preemergence): 0
Kochia plant response rating (0 to 100 scale) (kochia (Kochia scoparia) [2]; 125 g ai/ha Preemergence): 0
Kochia plant response rating (0 to 100 scale) (kochia (Kochia scoparia) [2]; 500 g ai/ha Preemergence): 0
Ragweed plant response rating (0 to 100 scale) ([3]; 125 g ai/ha Preemergence): 0
Ragweed plant response rating (0 to 100 scale) ([3]; 500 g ai/ha Preemergence): 0
Barnyardgrass plant response rating (0 to 100 scale) ([4]; 125 g ai/ha Preemergence): 0
Barnyardgrass plant response rating (0 to 100 scale) ([4]; 500 g ai/ha Preemergence): 0
Pigweed plant response rating (0 to 100 scale) ([5]; 125 g ai/ha Preemergence): 0
Pigweed plant response rating (0 to 100 scale) ([5]; 500 g ai/ha Preemergence): 0
Ryegrass, Italian plant response rating (0 to 100 scale) ([6]; 125 g ai/ha Preemergence): 0
Ryegrass, Italian plant response rating (0 to 100 scale) ([6]; 500 g ai/ha Preemergence): 0
Foxtail, Green plant response rating (0 to 100 scale) [7]: 0
Foxtail, Green plant response rating [7]: 0
Kochia plant response rating (0 to 100 scale) (kochia (Kochia scoparia) [8]): 10
Kochia plant response rating (kochia (Kochia scoparia) [8]): 0
Wheat plant response rating (0 to 100 scale) [9]: 0
Wheat plant response rating [9]: 0
Ragweed plant response rating (0 to 100 scale) [10]: 20
Ragweed plant response rating [10]: 0
Barnyardgrass plant response rating (0 to 100 scale) [11]: 0
Barnyardgrass plant response rating [11]: 0
Pigweed plant response rating (0 to 100 scale) [12]: 60
Pigweed plant response rating [12]: 0
Blackgrass plant response rating (0 to 100 scale) [13]: 0
Blackgrass plant response rating [13]: 0
Galium plant response rating (0 to 100 scale) [14]: 80
Galium plant response rating [14]: 0
Corn plant response rating (0 to 100 scale) (corn (Zea mays)): 0
Corn plant response rating (corn (Zea mays)): 0
Ryegrass, Italian plant response rating (0 to 100 scale) [15]: 20
Ryegrass, Italian plant response rating [15]: 0
Plant response rating, Ducksalad (0 to 100 scale, 0 is no effect, 100 is complete control) [16]: 0
Plant response rating, Barnyardgrass (0 to 100 scale, 0 is no effect, 100 is complete control) [17]: 0
Plant response rating, Rice (0 to 100 scale, 0 is no effect, 100 is complete control) (rice (Oryza sativa)): 0
Plant response rating, Sedge, Umbrella (0 to 100 scale, 0 is no effect, 100 is complete control) [18]: 0

CCO/N=C(/c1ccc(C)cc1)c1c(O)c(C)nn(C)c1=O [Compound 16]
Foxtail, Green plant response rating (0 to 100 scale) ([1]; 125 g ai/ha Preemergence): 0
Foxtail, Green plant response rating (0 to 100 scale) ([1]; 500 g ai/ha Preemergence): 0
Kochia plant response rating (0 to 100 scale) (kochia (Kochia scoparia) [2]; 125 g ai/ha Preemergence): 0
Kochia plant response rating (0 to 100 scale) (kochia (Kochia scoparia) [2]; 500 g ai/ha Preemergence): 0
Ragweed plant response rating (0 to 100 scale) ([3]; 125 g ai/ha Preemergence): 0
Ragweed plant response rating (0 to 100 scale) ([3]; 500 g ai/ha Preemergence): 20
Barnyardgrass plant response rating (0 to 100 scale) ([4]; 125 g ai/ha Preemergence): 0
Barnyardgrass plant response rating (0 to 100 scale) ([4]; 500 g ai/ha Preemergence): 0
Pigweed plant response rating (0 to 100 scale) ([5]; 125 g ai/ha Preemergence): 0
Pigweed plant response rating (0 to 100 scale) ([5]; 500 g ai/ha Preemergence): 0
Ryegrass, Italian plant response rating (0 to 100 scale) ([6]; 125 g ai/ha Preemergence): 0
Ryegrass, Italian plant response rating (0 to 100 scale) ([6]; 500 g ai/ha Preemergence): 50
Foxtail, Green plant response rating (0 to 100 scale) [7]: 10
Foxtail, Green plant response rating [7]: 0
Kochia plant response rating (0 to 100 scale) (kochia (Kochia scoparia) [8]): 10
Kochia plant response rating (kochia (Kochia scoparia) [8]): 0
Wheat plant response rating (0 to 100 scale) [9]: 0
Wheat plant response rating [9]: 0
Ragweed plant response rating (0 to 100 scale) [10]: 30
Ragweed plant response rating [10]: 0
Barnyardgrass plant response rating (0 to 100 scale) [11]: 10
Barnyardgrass plant response rating [11]: 0
Pigweed plant response rating (0 to 100 scale) [12]: 0
Pigweed plant response rating [12]: 0
Blackgrass plant response rating (0 to 100 scale) [13]: 0
Blackgrass plant response rating [13]: 0
Galium plant response rating (0 to 100 scale) [14]: 0
Galium plant response rating [14]: 0
Corn plant response rating (0 to 100 scale) (corn (Zea mays)): 0
Corn plant response rating (corn (Zea mays)): 0
Ryegrass, Italian plant response rating (0 to 100 scale) [15]: 0
Ryegrass, Italian plant response rating [15]: 0
Plant response rating, Ducksalad (0 to 100 scale, 0 is no effect, 100 is complete control) [16]: 0
Plant response rating, Barnyardgrass (0 to 100 scale, 0 is no effect, 100 is complete control) [17]: 0
Plant response rating, Rice (0 to 100 scale, 0 is no effect, 100 is complete control) (rice (Oryza sativa)): 0
Plant response rating, Sedge, Umbrella (0 to 100 scale, 0 is no effect, 100 is complete control) [18]: 0
